Tests used:
[1] = biological target: T1, Organic anion transporter 3 (Homo sapiens, UniProt Q8TCC7); assay: TP_TRANSPORTER: inhibition of E1S uptake (E1S: 0.05 uM, BSP: 5 uM) in Xenopus laevis oocytes; format: functional, cell-based; conditions: oocyte
T1 sequence (Q8TCC7 whole entry): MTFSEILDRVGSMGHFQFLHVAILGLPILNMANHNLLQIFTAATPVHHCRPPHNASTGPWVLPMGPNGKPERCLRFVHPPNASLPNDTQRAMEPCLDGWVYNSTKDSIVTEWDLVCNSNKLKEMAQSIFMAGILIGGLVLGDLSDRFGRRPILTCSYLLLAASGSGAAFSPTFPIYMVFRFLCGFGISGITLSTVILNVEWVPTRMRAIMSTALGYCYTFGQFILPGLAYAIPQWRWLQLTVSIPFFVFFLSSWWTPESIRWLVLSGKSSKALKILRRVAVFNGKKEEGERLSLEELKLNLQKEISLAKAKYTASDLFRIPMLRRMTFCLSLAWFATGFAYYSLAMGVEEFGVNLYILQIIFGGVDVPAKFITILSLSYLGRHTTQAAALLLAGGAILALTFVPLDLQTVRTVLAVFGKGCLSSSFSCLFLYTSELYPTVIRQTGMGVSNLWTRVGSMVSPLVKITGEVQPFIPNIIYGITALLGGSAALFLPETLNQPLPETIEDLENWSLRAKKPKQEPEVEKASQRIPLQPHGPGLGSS

[2] = biological target: T1, Organic anion transporter 3; assay: (§1) TP_TRANSPORTER: uptake in Xenopus laevis oocytes; format: functional, cell-based; conditions: oocyte
[3] = biological target: T1, Organic anion transporter 3; assay: TP_TRANSPORTER: inhibition of E1S uptake (E1S: 0.05 uM, DHEAS: 5 uM) in Xenopus laevis oocytes; format: functional, cell-based; conditions: oocyte
[4] = biological target: T1, Organic anion transporter 3; assay: TP_TRANSPORTER: inhibition of E1S uptake (E1S: 0.05 uM, Glutarate: 5 uM) in Xenopus laevis oocytes; format: functional, cell-based; conditions: oocyte
[5] = biological target: T1, Organic anion transporter 3; assay: TP_TRANSPORTER: inhibition of E1S uptake (E1S: 0.05 uM, Bumetanide: 5 uM) in Xenopus laevis oocytes; format: functional, cell-based; conditions: oocyte
[6] = biological target: T1, Organic anion transporter 3; assay: TP_TRANSPORTER: inhibition of E1S uptake (E1S: 0.05 uM, Guanidine: 5 uM) in Xenopus laevis oocytes; format: functional, cell-based; conditions: oocyte
[7] = biological target: T1, Organic anion transporter 3; assay: TP_TRANSPORTER: inhibition of E1S uptake (E1S: 0.05 uM, Corticosterone: 5 uM) in Xenopus laevis oocytes; format: functional, cell-based; conditions: oocyte
[8] = biological target: T1, Organic anion transporter 3; assay: TP_TRANSPORTER: inhibition of E1S uptake (E1S: 0.05 uM, Ouabain: 5 uM) in Xenopus laevis oocytes; format: functional, cell-based; conditions: oocyte
[9] = biological target: T1, Organic anion transporter 3; assay: TP_TRANSPORTER: inhibition of E1S uptake (E1S: 0.05 uM, AZT: 5 uM) in Xenopus laevis oocytes; format: functional, cell-based; conditions: oocyte
[10] = biological target: T1, Organic anion transporter 3; assay: TP_TRANSPORTER: inhibition of E1S uptake (E1S: 0.05 uM, Indomethacin: 5 uM) in Xenopus laevis oocytes; format: functional, cell-based; conditions: oocyte
[11] = biological target: T1, Organic anion transporter 3; assay: TP_TRANSPORTER: inhibition of E1S uptake (E1S: 0.05 uM, Quinidine: 5 uM) in Xenopus laevis oocytes; format: functional, cell-based; conditions: oocyte
[12] = biological target: T1, Organic anion transporter 3; assay: TP_TRANSPORTER: inhibition of E1S uptake (E1S: 0.05 uM, Diclofenac: 5 uM) in Xenopus laevis oocytes; format: functional, cell-based; conditions: oocyte
[13] = biological target: T1, Organic anion transporter 3; assay: TP_TRANSPORTER: inhibition of E1S uptake (E1S: 0.05 uM, Ibuprofen: 5 uM) in Xenopus laevis oocytes; format: functional, cell-based; conditions: oocyte
[14] = biological target: T1, Organic anion transporter 3; assay: TP_TRANSPORTER: inhibition of E1S uptake (E1S: 0.05 uM, PCG: 5 uM) in Xenopus laevis oocytes; format: functional, cell-based; conditions: oocyte
[15] = biological target: T1, Organic anion transporter 3; assay: TP_TRANSPORTER: inhibition of E1S uptake (E1S: 0.05 uM, Probenecid: 5 uM) in Xenopus laevis oocytes; format: functional, cell-based; conditions: oocyte
[16] = substrate: CN/C(=N/CCSCc1nc[nH]c1C)NC#N; assay: cells, lysate or membranes named
[17] = substrate: C[C@]12CC[C@@H]3c4ccc(OS(=O)(=O)O)cc4CC[C@H]3[C@@H]1CCC2=O; assay: as §1; format: functional, cell-based, Oocyte
[18] = substrate: Nc1ccc(C(=O)NCC(=O)O)cc1; assay: as §1; format: functional, cell-based, Oocyte
[19] = substrate: CN(Cc1cnc2nc(N)nc(N)c2n1)c1ccc(C(=O)N[C@@H](CCC(=O)O)C(=O)O)cc1; assay: as §1; format: functional, cell-based, Oocyte

Molecule: O=C1OC(c2ccc(O)c(S(=O)(=O)[O-])c2)(c2ccc(O)c(S(=O)(=O)[O-])c2)c2c(Br)c(Br)c(Br)c(Br)c21.[Na+].[Na+] [SULFOBROMOPHTHALEIN SODIUM]
- Activity [1]: inhibitor [(at a rough estimate) 55 % of control]

Molecule: C[C@]12CC[C@H](OS(=O)(=O)O)CC1=CC[C@@H]1[C@@H]2CC[C@]2(C)C(=O)CC[C@@H]12 [PRASTERONE SULFURIC ACID]
- Activity [2]: substrate [+]
- Activity [3]: inhibitor [(at a rough estimate) 10 % of control]

Molecule: O=C(O)CCCC(=O)O [GLUTARATE]
- Activity [2]: substrate [+]
- Activity [4]: inhibitor [(at a rough estimate) 35 % of control]

Molecule: CCCCNc1cc(C(=O)O)cc(S(N)(=O)=O)c1Oc1ccccc1 [BUMETANIDE]
- Activity [5]: inhibitor [(at a rough estimate) 10 % of control]

Molecule: O=C(O)[C@H]1O[C@@H](O)[C@H](O)[C@@H](O)[C@@H]1O [GLUCURONATE]
- Activity [2]: is not a substrate [-]

Molecule: CCCC(CCC)C(=O)O [VALPROIC ACID]
- Activity [2]: is not a substrate [-]

Molecule: N=C(N)N [GUANIDINE]
- Activity [6]: is not an inhibitor [-]

Molecule: C[C@@H]1Cc2c(Cl)cc(C(=O)N[C@@H](Cc3ccccc3)C(=O)O)c(O)c2C(=O)O1 [3R14S-OCHRATOXIN A]
- Activity [2]: substrate [+]

Molecule: C[C@]12C[C@H](O)[C@H]3[C@@H](CCC4=CC(=O)CC[C@@]43C)[C@@H]1CC[C@@H]2C(=O)CO [CORTICOSTERONE]
- Activity [7]: inhibitor [(at a rough estimate) 30 % of control]

Molecule: Nc1nc2c(ncn2COCCO)c(=O)[nH]1 [ACYCLOVIR]
- Activity [2]: is not a substrate [-]

Molecule: C[C@@H]1O[C@@H](O[C@H]2C[C@@H](O)[C@]3(CO)[C@H]4[C@H](O)C[C@]5(C)[C@@H](C6=CC(=O)OC6)CC[C@]5(O)[C@@H]4CC[C@]3(O)C2)[C@H](O)[C@H](O)[C@H]1O [OUABAIN]
- Activity [8]: is not an inhibitor [-]

Molecule: O=C(O)CCC(=O)O [SUCCINIC ACID]
- Activity [2]: is not a substrate [-]

Molecule: Cc1cn([C@H]2C[C@H](N=[N+]=[N-])[C@@H](CO)O2)c(=O)[nH]c1=O [ZIDOVUDINE]
- Activity [9]: is not an inhibitor [-]

Molecule: O=C(O)c1ccccc1O [SALICYLIC ACID]
- Activity [2]: substrate [+]

Molecule: O=c1[nH]c(=O)c2[nH]c(=O)[nH]c2[nH]1 [URIC ACID]
- Activity [2]: substrate [+]

Molecule: COc1ccc2c(c1)c(CC(=O)O)c(C)n2C(=O)c1ccc(Cl)cc1 [INDOMETHACIN]
- Activity [10]: inhibitor [(at a rough estimate) 15 % of control]

Molecule: C[C@]12CC[C@@H]3c4ccc(O)cc4CC[C@H]3[C@@H]1CC[C@@H]2O[C@@H]1O[C@H](C(=O)O)[C@@H](O)[C@H](O)[C@H]1O [ESTRADIOL 17B GLUCURONIDE]
- Activity [2]: substrate [+]

Molecule: C=C[C@H]1C[N@@]2CC[C@H]1C[C@@H]2[C@@H](O)c1ccnc2ccc(OC)cc12 [QUINIDINE]
- Activity [11]: inhibitor [(at a rough estimate) 55 % of control]

Molecule: O=C(O)Cc1ccccc1Nc1c(Cl)cccc1Cl [DICLOFENAC]
- Activity [12]: inhibitor [(at a rough estimate) 10 % of control]

Molecule: CC(C)Cc1ccc(C(C)C(=O)O)cc1 (centres undefined) [IBUPROFEN]
- Activity [2]: is not a substrate [-]
- Activity [13]: inhibitor [(at a rough estimate) 10 % of control]

Molecule: CC1(C)S[C@@H]2[C@H](NC(=O)Cc3ccccc3)C(=O)N2[C@H]1C(=O)O [PENICILLIN G]
- Activity [14]: inhibitor [(at a rough estimate) 35 % of control]

Molecule: CCCN(CCC)S(=O)(=O)c1ccc(C(=O)O)cc1 [PROBENECID]
- Activity [15]: inhibitor [(at a rough estimate) 10 % of control]

B1: Organic anion transporter 3 (Homo sapiens) (protein)
chain: T1 sequence (Q8TCC7 whole entry)
- Km [16]: 57.4 µM
- Km [17]: 3.1 µM
- Km [18]: 87.2 µM
- Km [19]: 10.9 µM

Source: ChEMBL document CHEMBL2074134, “Identification and characterization of human organic anion transporter 3 expressing predominantly in the kidney” (Mol Pharmacol, 2001)
